Literature values, collected in patent US8871277B2, “Particulate wood preservative and method for producing the same” (Osmose, Inc., priority 2003, dated 2014).
Where two headings read alike, the source gives them in different places.

Legend:
[1] = solubility product constant
[2] = Synthetic Precipitation Leaching Procedure

Question: With `[Cu]` [copper] as the compound, how does the solubility of copper (pH 4) read?
Answer: The solubility of copper was 640 ppm.

Question: And the solubility of copper (pH 7)?
Answer: Its solubility of copper is 2 ppm.

Question: And the solubility of copper (pH 10)?
Answer: Its solubility of copper is “about 0.01 ppm”.

Question: Which Ksp [1] does the source give for copper 8-quinolinolate here?
Answer: The Ksp was 2 E−30.

Question: Which “copper in leachate from treated wood” value [2] does the source give for copper citrate here?
Answer: Its value is 62 mg copper per liter.

Question: For copper sulfide, which Ksp [1] is on record?
Answer: Its Ksp is 6 E−36.
